Experimental data reported in PubChem BioAssay (NCI).
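48-hour exposure; five concentrations; linearly interpolated endpoints. GI50 is the concentration that inhibits growth by half. At the TGI there is no net growth.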

Tests used:
Assay in all cases: NCI tumour cell line growth inhibition, 48 h
[1] = system: RXF 393 renal
[2] = system: SF-295 CNS
[3] = system: NCI-H522 lung
[4] = system: SF-539 CNS
[5] = system: HCT-15 colon
[6] = system: 786-0 renal
[7] = system: HCC-2998 colon
[8] = system: NCI/ADR-RES ovarian
[9] = system: OVCAR-5 ovarian
[10] = system: UACC-257 melanoma
[11] = system: HCT-116 colon
[12] = system: SK-OV-3 ovarian
[13] = system: NCI-H226 lung
[14] = system: A498 renal
[15] = system: UO-31 renal
[16] = system: PC-3 prostate
[17] = system: SF-268 CNS
[18] = system: CAKI-1 renal
[19] = system: SR leukemia
[20] = system: MOLT-4 leukemia
[21] = system: SNB-75 CNS
[22] = system: ACHN renal
[23] = system: UACC-62 melanoma
[24] = system: LOX IMVI melanoma
[25] = system: DU-145 prostate
[26] = system: OVCAR-3 ovarian
[27] = system: NCI-H23 lung
[28] = system: COLO 205 colon
[29] = system: SN12C renal

SMILES: CCN(Cc1ccncc1)c1ccc(CO)c(Cl)c1
- TGI [1]: > 100 µM
- GI50 [2]: 0.951 µM
- TGI [2]: > 56.3 µM
- GI50 [3]: > 100 µM
- TGI [3]: > 100 µM
- GI50 [4]: > 100 µM
- TGI [4]: > 100 µM
- GI50 [5]: > 100 µM
- TGI [5]: > 100 µM
- GI50 [6]: > 57 µM
- TGI [6]: > 100 µM
- GI50 [7]: 22 µM
- TGI [7]: > 100 µM
- GI50 [8]: 81.1 µM
- TGI [8]: > 100 µM
- GI50 [9]: 0.152 µM
- TGI [9]: 0.584 µM
- GI50 [10]: 0.237 µM
- TGI [10]: 0.738 µM
- GI50 [11]: 0.352 µM
- TGI [11]: > 100 µM
- GI50 [12]: > 76.1 µM
- TGI [12]: > 100 µM
- GI50 [13]: 0.127 µM
- TGI [13]: 0.32 µM
- GI50 [14]: 0.0525 µM
- TGI [14]: 0.203 µM
- GI50 [15]: 24.9 µM
- TGI [15]: > 100 µM
- GI50 [16]: > 100 µM
- TGI [16]: > 100 µM
- GI50 [17]: > 100 µM
- TGI [17]: > 100 µM
- GI50 [18]: 61.6 µM
- TGI [18]: > 100 µM
- GI50 [19]: > 100 µM
- TGI [19]: > 100 µM
- GI50 [20]: > 100 µM
- TGI [20]: > 100 µM
- GI50 [21]: > 77.8 µM
- TGI [21]: > 100 µM
- GI50 [22]: > 100 µM
- TGI [22]: > 100 µM
- GI50 [23]: 0.333 µM
- TGI [23]: 2.17 µM
- GI50 [24]: > 100 µM
- TGI [24]: > 100 µM
- GI50 [25]: > 100 µM
- TGI [25]: > 100 µM
- GI50 [26]: 1.14 µM
- TGI [26]: 4.67 µM
- GI50 [27]: > 100 µM
- TGI [27]: > 100 µM
- GI50 [28]: 1.77 µM
- TGI [28]: 6.34 µM
- GI50 [29]: > 100 µM
